Reference: patent US11376255B2, “Thiocarbamate derivatives as A2A inhibitors, pharmaceutical composition thereof and combinations with anticancer agents” (iTeos Belgium SA, priority 2018, dated 2022)

What was measured:
Hepa 1-6 tumor cells = test: Syngeneic HEPA1-6 mouse liver tumor model; assay type: in vivo, C57BL/6 mice; settings: 3 mg/kg p.o. BID, single agent; calculated on Day 22
Excerpt: This study evaluated the anti-tumor activity of Compound 7 in a mouse hepatoma model (NCR-A2A-032).
C57BL/6 female mice (8 weeks old) were inoculated subcutaneously in the right flank region with Hepa 1-6 tumor cells (on day 0). When tumor size reached about 50 mm^3 (on Day 4), mice were randomly allocated into experimental groups and treatment was initiated from day 4 to 25.

[1] = test system: A20 mouse B-cell tumor cells; test: Syngeneic A20 experimental lymphoma model in combination with anti-PD-L1; assay type: in vivo, BALB/c mice; settings: for TGI: day 23
Protocol: In this study the anti-tumor efficacy of Compound 7 was assessed either as single agent (monotherapy) or in combination with antagonist anti-Programmed Death-Ligand 1 (anti-PD-L1) monoclonal antibody (10F.9G2, BioXcell) in a model of B cell lymphoma model. (NCR-A2A-031).
BALB/c female mice (8 weeks old) were inoculated with A20 mouse B-cell tumor cells, subcutaneously in the right lower flank region (day 0). When tumors reached a size of about 50 mm^3 (Day 7), mice were allocated randomly into groups and treatment was initiated.

Human CD3+ T cells = test: Human T cell activation assay in presence of ATP (CFSE proliferation, TNFα AlphaLISA); settings: ATP 100 μM, 72 hours
Excerpt: PBMC and CD3^+ T cell isolation. Venous blood from healthy volunteers was obtained via ImmuneHealth (Centre Hospitalier Universitaire Tivoli, La Louviere, Belgium). Peripheral blood mononuclear cells (PBMCs) were collected by density gradient centrifugation, using SepMate-50 tubes (StemCell Technologies, Grenoble, France) and Lymphoprep (Axis-shield, Oslo, Norway) according to the manufacturer's instructions. PBMCs were stored in heat inactivated foetal bovine serum (hiFBS; Gibco, ThermoFisher Scientific, Merelbeke, Belgium) containing 10% DMSO in liquid nitrogen until required. PBMCs were thawed and washed into PBS (with 10% hiFBS) and labelled with 1 μM CFSE (Life Technologies) at room temperature for 5 minutes. Cells were washed into StemCell isolation buffer and CD3^+ T cells were isolated by immunomagnetic negative selection, using the EasySep Human T Cell Isolation Kit (StemCell Technologies) as per manufacturer's instructions.
Human T cell activation assay. […]
Cells were placed in a 37° C. humidified tissue culture incubator with 5% CO2 for 72 hours. […] Proliferation of CD4^+ T cells was assessed by determining CFSE dilution by flow cytometry using a BD LSRFortessa (BD Biosciences). Supernatants were later thawed and TNFα was quantified using the AlphaLISA Human TNFα Biotin-Free Detection Kit (AL325; Perkin-Elmer, Zaventem, Belgium), according to the manufacturer's instructions.

CT26 mouse tumor cells = test: Syngeneic CT26 experimental colon cancer model in combination with Doxorubicin and/or anti-TIGIT mAb
MCA205 tumor cells = test: Syngeneic MCA205 experimental fibrosarcoma model in combination with Oxaliplatin; assay type: in vivo, C57BL/6 mice; settings: Oxaliplatin 10 mg/kg i.p. single administration at D11, single agent; p=0.0202
Excerpt: MCA205 tumor cells were inoculated subcutaneously into the right flank of C57BL/6 mice. When tumors reached an average size of about 80 mm^3, mice were randomly allocated into groups.

Question: With `C[S@@+]([O-])CCOc1cc(N2CCN(CCn3c(=O)sc4c3nc(N)n3nc(-c5ccco5)nc43)CC2)c(F)cc1F` (racemic) [Compound 7, (R,S)-5-amino-3-(2-(4-(2,4-difluoro-5-(2-(methylsulfinyl)ethoxy)phenyl)piperazin-1-yl)ethyl)-8-(furan-2-yl)thiazolo[5,4-e][1,2,4]triazolo[1,5-c]pyrimidin-2(3H)-one] as the molecule, how does the “tumor growth inhibition (TGI)” value (Hepa 1-6 tumor cells) read?
Answer: 44%

Question: And the TGI ([1]; Compound 7 0.3 mg/kg p.o. BID in combination with anti-PD-L1 mAb 5 mg/kg i.p. Q3D×3)?
Answer: 76%

Question: And the TGI ([1]; Compound 7 3 mg/kg BID in combination with anti-PD-L1 mAb 5 mg/kg i.p. Q3D×3)?
Answer: 82%

Question: What about the “interaction with anti-PD-L1 mAb on growth of established A20 tumor (statistical analysis)” value ([1]; combination with anti-PD-L1 mAb, p=0.017) of the same molecule?
Answer: synergises with anti-PD-L1 mAb

Question: Which “restoration of TNFα production inhibited by ATP” value (Human CD3+ T cells; CD39 inhibitors ARL67156 100 μM and POM-1 10 μM without compound 8a) does the source give for `CCN(CC)c1ncnc2c1ncn2[C@@H]1O[C@H](COP(=O)(O)OP(=O)(O)C(Br)(Br)P(=O)(O)O)[C@@H](O)[C@H]1O` [ARL67156] here?
Answer: approximately 50%

Question: And the “CD4+ T cell proliferation inhibited by ATP” value (Human CD3+ T cells; combination of CD39 inhibitors ARL67156 100 μM and POM-1 10 μM)?
Answer: almost completely rescued

Question: Which results are given for `COc1cccc2c1C(=O)c1c(O)c3c(c(O)c1C2=O)C[C@@](O)(C(=O)CO)C[C@@H]3O[C@H]1C[C@H](N)[C@H](O)[C@H](C)O1` [Doxorubicin]?
Answer: anti-tumor efficacy compared to anti-TIGIT mAb or Doxorubicin stand-alone (CT26 mouse tumor cells; Doxorubicin 6 mg/kg in combination with anti-TIGIT mAb 1 mg/kg, p=0.008 and p=0.0002): improved anti-tumor efficacy; tumor growth (CT26 mouse tumor cells; Doxorubicin 6 mg/kg on day 10 and 14, single agent, p=0.14): no significant effect on tumor growth; complete responders (CR) (CT26 mouse tumor cells; anti-TIGIT+Doxorubicin combination, out of 10 mice): one

Question: How did the “tumor growth compared to Vehicle” value (MCA205 tumor cells) turn out when `O=C1[O][Pt]2([NH][C@@H]3CCCC[C@H]3[NH]2)[O]C1=O` [Oxaliplatin] was run?
Answer: significant delay in tumor growth
